One molecule from patent US20190328869A1, “IMMUNOTHERAPEUTIC PRODUCT AND MDSC MODULATOR COMBINATION THERAPY” (Transgene SA, priority 2016, published 2019) can be followed below.

In one assay the test system is HBsAg (AAV2/8-HBV). Nature of the assay: Serum HBsAg level by ELISA in HBV-persistent mice. The assay is classed as in vivo, C57BL/6J mice. Particulars: monotherapy; sildenafil 5, 20 or 80 mg/kg/day D31-59; AdTG18201 D36, 43, 50; up to day 104. The procedure:
Graph A illustrates the median level of HBsAg determined in the serum of groups of 10 mice (groups a to h) treated with sildenafil at 5 mg/kg/day (group b), at 20 mg/kg/day (group c), or at 80 mg/kg/day (group d) alone, or with AdTG18201 (group e) alone or with a combination of AdTG18201 and sildenafil (at 5, 20, or 80 mg/kg/day, groups f, g and h, respectively). The control group a is untreated. The Y-axis indicates the median HBsAg level (ng/mL) for each group and the X-axis the time (number of days post-AAV2/8-HBV injection). Graph B illustrates the median level of HBV DNA determined in the serum of the same groups of mice by PCR. The Y-axis indicates the median HBV DNA level (copies/mL) for each group of animals and the X-axis the time (number of days post-AAV2/8-HBV injection). […]
The HBV persistent mice used in the study were described by Dion et al. (2013, J Virol, 87(10):5554-63). […] This allows the analysis of HBV-specific viral parameters (HBsAg, HBeAg, HBcAg and viremia) as well as immunological read-outs (ICS, ELISpot or humoral immune responses). […]
HBsAg levels in mouse serum were assessed using a commercial ELISA kit (Monolisa HBsAg Ultra, Bio-Rad, France) according to the manufacturer's protocol, except that a standard curve was established, to render the test quantitative. […]

In a further assay the test system is HBV RNA (AAV2/8-HBV). Put plainly: Serum HBV RNA by RT-qPCR in HBV-persistent mice. The assay is classed as in vivo, C57BL/6J mice. Particulars: sildenafil only 5 mg/kg/day (group b), over the experiment. As to the method: The graph illustrates the median level of HBV RNA determined in the serum of 6 mice per group (groups a, b, e and f) treated with sildenafil at 5 mg/kg/day (group b) or with AdTG18201 alone (group e) or with a combination of AdTG18201 and sildenafil (at 5 mg/kg/day, group f). The control group a is untreated. The Y-axis indicates the median HBV RNA level (log 10 copies/mL) and the X-axis the time (number of days post-AAV2/8-HBV injection). Time points of AdTG18201 immunization (D36, D43, D50) are shown by a dashed line and the period of sildenafil treatment (from D31 to 59) is shown by a horizontal bar on the X axis.
HBV DNA/RNA extraction was performed using the MagMax-96 viral RNA isolation kit from Ambion according to manufacturer's protocol. Briefly, 50 μL of serum was added to 20 μL of reconstituted RNA/DNA binding beads. Plate was shaken for 1 minute on a thermomixer (Eppendorf Thermomixer compact) at 600-700 rpm. Then, 130 μL of lysis/binding solution, spiked with qPCR kit internal extraction control DNA, were added before additional shaking for 10 minutes. Beads were captured on a magnetic stand for 3 minutes and after 4 washes the supernatant was discarded. Residual washing solution was removed by drying the beads (shaking of the plate for 3 minutes at 900 rpm). Then, 50 μL of elution buffer was added (shaking of the plate for 3 minutes at 900 rpm). […]

On to `CCCc1nn(C)c2c(=O)nc(-c3cc(S(=O)(=O)N4CCN(C)CC4)ccc3OCC)[nH]c12` [sildenafil, 1-[[3-(4,7-dihydro-1-methyl-7-oxo-3-propyl-1H-pyrazolo[4,3-d]pyrimidin-5-yl)-4-ethoxyphenyl]sulfonyl]-4-methylpiperazine], for which the “HBsAg median level, course” value in the assay with HBsAg (AAV2/8-HBV) is recorded as “no significant HBsAg decrease”. In the assay with HBV RNA (AAV2/8-HBV), the “median level of viral RNA” value is reported as “around 4.5 log 10 copies/mL serum”.
